Data set [1] can be described thus: logP determination by HPLC on a reversed-phase column (C18). The class given is physicochemical. Particulars: for logP: HPLC, C18 reversed phase, acetonitrile/water with formic acid, EEC Directive 79/831 Annex V.A8; for log P: HPLC-MS; for logP^a): HPLC-MS method a).
Another data set relates to Rhipicephalus sanguineus. Nature of the data set: Rhipicephalus sanguineus - in vitro contact tests with adult brown dog ticks. The class given is in vivo. Particulars: after 48 h, ticks dead or moribund. Put shortly:
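Efficacy, scored after 48 h, is the % of adult ticks dead or moribund, i.e. unable to climb away on a 45-50° C hotplate within 5 min. Tubes held 5-10 ticks in the dark at room temperature, on an acetone-applied coating of 5 μg/cm^2 (900 ppm solution).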

In data set [2] the test system is Ctenocephalides felis. Nature of the data set: Ctenocephalides felis - in vitro contact tests with adult cat fleas. Type of data set: in vivo. The following applies: application rate 5 μg/cm2 (=500 g/ha); after 48 h; fleas dead or moribund. Put shortly:
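Efficacy, as percentage of fleas dead or moribund, was scored at 48 h by knocking fleas to the tube base. Exposure was by contact with a dried acetone film of compound at 5 μg/cm^2 area dose; 5–10 adults per tube, room temperature, ambient humidity.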

In another data set the test system is Amblyomma hebraeum. As to the kind of experiment: Amblyomma hebaraeum test (tick nymphs, immersion). The following applies: application rate 100 ppm; tick nymphs immersed one minute; after 42 days. Type of data set: in vivo. Put shortly:
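Mortality (%) is read 42 days post-treatment, where 0% means no ticks and 100% all ticks killed. Nymphs were dipped for 1 min into the test dilution (DMSO stock diluted with water) and afterwards stored on filter paper under controlled climate.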

Another data set has as its system Boophilus microplus. Nature of the data set: Boophilus microplus - injection test. The class given is in vivo. Particulars: application rate 20 μg/animal, injection into engorged adult female ticks, after 7 days; for pest or weed control at 0.02 mg: Rhipicephalus microplus, 168 h, read-out: efficacy (laying of fertile eggs). In a few lines:
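Five engorged adult female cattle ticks each received a 1 μl abdominal injection of compound solution in dimethyl sulphoxide. Fertile egg laying was assessed at 7 days, with doubtful eggs incubated about 42 days until hatch. 0% efficacy means all eggs fertile.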

Data set [3] relates to Boophilus microplus Parkhurst strain, SP-resistant. As to the kind of experiment: Boophilus microplus - dip test. The class given is in vivo. The following applies: application rate 100 ppm; dip of engorged adult female ticks; after 7 days. Put shortly:
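Compound dissolved in DMSO, diluted with water, and used to fully wet groups of 8-10 engorged female cattle ticks (SP-resistant Parkhurst strain). Fertile egg laying assessed at 7 days, doubtful eggs held ~42 days until hatch; 0% means all eggs fertile.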

The next data set has as its system Musca domestica. As to the kind of experiment: Musca domestica test. Type of data set: in vivo. The following applies: application rate 100 ppm; adult houseflies; after 2 days. Put shortly: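 Ten adult Musca domestica are exposed to a sugar-soaked sponge carrying the water-diluted DMSO formulation; kill in % is read 2 days later.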
A further data set relates to Myzus persicae. Nature of the data set: Myzus persicae - spray test. The following applies: Chinese cabbage leaf discs, after 6 days. The class given is in vivo. Put shortly:
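Mortality of the green peach aphid, as % killed, was read 6 days after spraying infested Brassica pekinensis leaf discs. Compound formulated in acetone/dimethylformamide and made up with emulsifier-containing (1000 ppm) water.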

The subject of data set [4] is Anopheles gamhiae strain RSPH (homozygot kdr). Nature of the data set: Anopheles test (ANPHGB surface treatment). The following applies: read-out: efficacy (mortality). Type of data set: in vivo. The procedure:
(§1) Solvent: acetone+2000 ppm rapeseed oil methyl ester (RME)
To produce an appropriate active ingredient formulation, the active ingredient is dissolved in the solvent (2 mg/ml). The active ingredient formulation is pipetted onto a glazed tile and, after it has dried off, adult mosquitoes of the species Anopheles gamhiae strain RSPH (homozygot kdr) are placed onto the treated tile. The exposure time is 30 minutes.
(§2) 24 hours after contact with the treated surface, mortality in % is determined. 100% means that all mosquitoes have been killed; 0% means that none of the mosquitoes have been killed.

Data set [5] has as its system Anopheles funestus strain FUMOZ-R. As to the kind of experiment: Anopheles test (ANPHFU surface treatment). Type of data set: in vivo. Particulars: read-out: efficacy (mortality). The method, then:
as §1
To produce an appropriate active ingredient formulation, the active ingredient is dissolved in the solvent (2 mg/ml). The active ingredient formulation is pipetted onto a glazed tile and, after it has dried off, adult mosquitoes of the species Anopheles funestus strain FUMOZ-R (Hunt et al., Med Vet Entomol. 2005 September; 19 (3):271-5) are placed onto the treated tile. The exposure time is 30 minutes.
as §2

For data set [6], the system named is Aedes aegypti strain MONHEIM. As to the kind of experiment: Aedes test (AEDSAE surface treatment). The class given is in vivo. Particulars: read-out: efficacy (mortality). The method, then: as §1
To produce an appropriate active ingredient formulation, the active ingredient is dissolved in the solvent (2 mg/ml). The active ingredient formulation is pipetted onto a glazed tile and, after it has dried off, adult mosquitoes of the species Aedes aegypti strain MONHEIM are placed onto the treated tile. The exposure time is 30 minutes.
as §2

The subject of a further data set is Meloidogyne incognita. Nature of the data set: Meloidogyne incognita test. The class given is in vivo. Particulars: application rate 20 ppm; lettuce; after 14 days. The procedure: Solvent: 125.0 parts by weight of acetone
To produce an appropriate active ingredient formulation, 1 part by weight of active ingredient is mixed with the stated amount of solvent and the concentrate is diluted with water to the desired concentration.
Vessels are filled with sand, active ingredient solution, an egg/larvae suspension of the southern root-knot nematode (Meloidogyne incognita) and lettuce seeds. The lettuce seeds germinate and the plants develop. The galls develop on the roots.
After 14 days, the nematicidal efficacy in % is determined by the formation of galls. 100% means that no galls were found; 0% means that the number of galls on the treated plants corresponds to the untreated control.

The subject of another data set is Phaedon cochleariae. As to the kind of experiment: Phaedon cochleariae - spray test. Particulars: larvae on Chinese cabbage leaf discs, after 7 days. The class given is in vivo. In a few lines:
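Mortality of mustard beetle larvae was scored as % at day 7 on Brassica pekinensis leaf discs. Discs had been treated by spraying at the desired concentration, using an acetone/dimethylformamide solution diluted in water with 1000 ppm alkylaryl polyglycol ether, and dried before larvae were added.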

The next data set relates to Spodoptera frugiperda. As to the kind of experiment: Spodoptera frugiperda - spray test. The class given is in vivo. Particulars: caterpillars on maize leaf discs, after 7 days. Put shortly: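 Percent mortality of Spodoptera frugiperda caterpillars scored 7 days after placing them on dried maize leaf discs sprayed at the desired concentration. Spray formulation: compound dissolved in acetone/dimethylformamide, made up with water containing 1000 ppm emulsifier.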

The next data set deals with Tetranychus urticae. Nature of the data set: Tetranychus urticae - spray test, OP-resistant. Type of data set: in vivo. Particulars: bean leaf discs, after 6 days. In a few lines:
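Mortality (%) read on day 6 after spraying Phaseolus vulgaris leaf discs carrying all mite stages with formulations at the desired concentration. Formulation: active ingredient in acetone plus dimethylformamide, made up with emulsifier-containing water (1000 ppm alkylaryl polyglycol ether).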

In data set [7] the test system is Ctenocephalides felis. Nature of the data set: Ctenocephalides felis - oral test. Type of data set: in vivo. The following applies: application rate 100 ppm in citrated cattle blood; after 2 days. Put shortly:
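Roughly 20 unfed adult C. felis imbibe compound-dosed citrated cattle blood (DMSO formulation) across parafilm from a cylinder above their gauze chamber; percentage mortality recorded at day 2.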

In a further data set the test system is Lucilia cuprina. Nature of the data set: Lucilia cuprina test. Particulars: application rate 100 ppm; L1 larvae; after 2 days. The class given is in vivo. In a few lines: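 Mortality (%) of first-instar blowfly larvae, about 20 per vessel, recorded 2 days after exposure to compound-treated minced horsemeat. Compound dissolved in dimethyl sulphoxide, then water-diluted to the desired concentration.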

The mark [8] stands for this setting: reversed-phase column (C18), Table I-T3.

Structures are written as SMILES.

On to `Cc1cc(C(F)(C(F)(F)F)C(F)(F)F)cc(C)c1-c1cc(-c2ccc(Cl)c(C(=O)NC3CC3)c2)on1` [I-T22-1, 2-chloro-N-cyclopropyl-5-[3-[2,6-dimethyl-4-[1,2,2,2-tetrafluoro-1-(trifluoromethyl)ethyl]phenyl]isoxazol-5-yl]benzamide], for which the logP in [1] was found to be 4.8. In addition, the efficacy in the data set on Rhipicephalus sanguineus (application rate 5 μg/cm2), in the data set with Ctenocephalides felis [2] and with Myzus persicae (application rate 100 g/ha) was 100% throughout. Also, the “efficacy (kill)” value in the data set on Amblyomma hebraeum and in the data set on Musca domestica was 100% throughout. The pest or weed control at 0.02 mg with Boophilus microplus is 100%. Besides, in [3], the “efficacy (laying of fertile eggs)” value came out at 100%. Besides, the mortality at 100 mg/m2 in data set [4], in [5] and in data set [6] was 90 to 100% each time. Moreover, the mortality at 20 mg/m2 in data set [5] and in [6] was 90 to 100% in each case.
Consider `N#CC1(NC(=O)c2cc(-c3cnn(-c4c(Cl)cc(C(F)(F)F)c(F)c4Cl)c3)ccc2Cl)CC1` [I-T3-185], for which, in [1] (setting [8]), the “log P” value is 3.6. In the data set with Meloidogyne incognita, the “nematicidal efficacy (formation of galls)” value amounted to 90%. The efficacy in the data set on Myzus persicae (application rate 500 g/ha), with Phaedon cochleariae (application rate 500 g/ha), with Spodoptera frugiperda (application rate 500 g/ha) and in the data set on Tetranychus urticae (application rate 500 g/ha) was 100% throughout.
For `O=C(NC1CC1)c1cc(-c2cc(-c3c(Cl)cc(C(F)(C(F)(F)F)C(F)(F)F)cc3Cl)on2)ccc1Cl` [I-T23-1, 2-chloro-N-cyclopropyl-5-[5-[2,6-dichloro-4-[1,2,2,2-tetrafluoro-1-(trifluoromethyl)ethyl]phenyl]isoxazol-3-yl]benzamide], in [1], the log partition coefficient (logP) came out at 5.0. In the data set on Ctenocephalides felis [2], this molecule registered an efficacy of 100%. Also, the “efficacy (kill)” value with Amblyomma hebraeum and in the data set with Musca domestica was 100% throughout. In the data set with Boophilus microplus, the pest or weed control at 0.02 mg amounted to 100%. Besides, the “efficacy (laying of fertile eggs)” value in data set [3] is 100%. Besides, the mortality at 20 mg/m2 in data set [5] and in data set [6] was 90 to 100% in each case. In addition, the mortality at 100 mg/m2 in data set [6] is 90 to 100%.
Turning to `O=C(NC1CC1)c1cc(-c2cnn(-c3c(Cl)cc(C(F)(F)F)c(F)c3Cl)c2)ccc1Cl` [I-T3-184], the “log P” value in [1] (setting [8]) turned out to be 3.6. Also, the “nematicidal efficacy (formation of galls)” value with Meloidogyne incognita turned out to be 90%. Further, the efficacy in the data set on Myzus persicae (application rate 100 g/ha), in the data set on Phaedon cochleariae (application rate 500 g/ha), in the data set on Spodoptera frugiperda (application rate 500 g/ha) and with Tetranychus urticae (application rate 500 g/ha) was 100% throughout.
For the molecule `Cc1cc(C(F)(C(F)(F)F)C(F)(F)F)cc(C)c1-n1cc(-c2ccc(Cl)c(C(=O)NC3(C#N)CC3)c2)cn1` [I-T3-3], the “logP^a)” value in data set [1] and in data set [1] (setting [8]) was 4.2 in each case. In addition, the efficacy with Rhipicephalus sanguineus (application rate 5 μg/cm2), in the data set on Ctenocephalides felis [2], with Myzus persicae (application rate 100 g/ha), in the data set with Phaedon cochleariae (application rate 100 g/ha), with Spodoptera frugiperda (application rate 100 g/ha) and in the data set with Tetranychus urticae (application rate 100 g/ha) was 100% throughout. Also, the “efficacy (kill)” value in the data set with Amblyomma hebraeum, in the data set with Ctenocephalides felis [7], in the data set with Lucilia cuprina and in the data set on Musca domestica was 100% in each case. For the same molecule, the “efficacy (laying of fertile eggs)” value (with Boophilus microplus; in data set [3]) was 100% throughout.
Regarding `CCc1cc(C(F)(C(F)(F)F)C(F)(F)F)cc(C)c1-n1cc(-c2cnc(Cl)c(C(=O)NC3(C#N)CC3)c2)cn1` [I-T3-110], the “logP^a)” value in data set [1] (reversed-phase column (C18)) is reported as 4.1. Further, the “log P” value in data set [1] (setting [8]) came to 4.1. In addition, the efficacy in the data set on Rhipicephalus sanguineus (application rate 5 μg/cm2), in the data set with Ctenocephalides felis [2], in the data set with Myzus persicae (application rate 500 g/ha), with Phaedon cochleariae (application rate 500 g/ha), in the data set with Spodoptera frugiperda (application rate 500 g/ha) and in the data set on Tetranychus urticae (application rate 500 g/ha) was 100% in each case. Moreover, the “efficacy (kill)” value with Amblyomma hebraeum, with Ctenocephalides felis [7], in the data set with Lucilia cuprina and in the data set on Musca domestica was 100% each time. Also, the “efficacy (laying of fertile eggs)” value (in the data set on Boophilus microplus; in data set [3]) was 100% in each case.
Take `Cc1cc(C(F)(C(F)(F)F)C(F)(F)F)cc(Cl)c1-n1cc(-c2ccc(Cl)c(C(=O)NC3(C#N)CC3)c2)cn1` [I-T3-64]: the “logP^a)” value in data set [1] and in data set [1] (setting [8]) was 4.2 each time. Further, the efficacy with Rhipicephalus sanguineus (application rate 0.2 μg/cm2) is reported as 80%; with Ctenocephalides felis [2], 100%; in the data set with Myzus persicae (application rate 100 g/ha), 90%; with Phaedon cochleariae (application rate 100 g/ha), 100%; in the data set on Spodoptera frugiperda (application rate 100 g/ha), 100%; with Tetranychus urticae (application rate 100 g/ha), 100%. The “efficacy (kill)” value with Amblyomma hebraeum, in the data set on Ctenocephalides felis [7], in the data set with Lucilia cuprina and with Musca domestica was 100% in each case. Besides, the “efficacy (laying of fertile eggs)” value (with Boophilus microplus; in data set [3]) was 100% each time.

The term logP denotes the decadic logarithm of the partition coefficient of the neutral form, usually between octanol and water. Low readings indicate lower lipophilicity, high ones higher lipophilicity. The mortality is the percentage killed. Usually log P stands for the decadic logarithm of the partition coefficient of the neutral form, usually between octanol and water.

The values are drawn from patent US10150737B2, “Compounds for controlling arthropods” (priority 2013, dated 2018).
